Assay results from patent US11912682B2, “Isoindolinone compounds” (Monte Rosa Therapeutics, Inc., priority 2021, dated 2024).
Where two headings read alike, the source gives them in different places.

Experiments:
GSPT1 = GSPT1 (Homo sapiens (Human), UniProt P15170+Q96SW2); assay: immunofluorescence assay for GSPT1 degradation in CAL-51 cells (Example 4); assay type: cell-based
Method: The representative compounds were tested in an immunofluorescence assay for their activity to bind to degrade GSPT1. CAL-51 cells were purchased from DSMZ (cat. Number ACC302), sub-cultured in 90% Dulbecco's MEM (4.5 g/L glucose, Gibco 11965) +10% heat inactivated FBS (BioConcept, 2-01F136I) and incubated at 37° C., 5% CO2. For the assay, imaging microtiterplate Cell Carrier 96 Ultra (Perkin Elmer 6055302) were pre-coated with Fibronectin (Sigma F085, 30 μl at 0.2 μg/ml) in PBS (100 μl, Gibco 14190) for 45 min at room temperature, rinsed with PBS and CAL-51 cells (30 K cells/well) were plated and let to adhere overnight. Cells were treated with compounds typically using a serial dilution ranging from 30 μM to 0.1 nM for 6 hours. Compounds were stored at 10 mM DMSO stocks. Vehicle (DMSO), positive (CC-885, 10 μM) and rescue controls (positive control plus 0.2 μM bortezomib) were also included atthis stage. Cells were subsequently rinsed with PBS and fixed in 10% Formalin solution (50 μl, Sigma HT5011)) for 20 mins at room temperature. Following three consecutive PBS washes (100 μl), cells were permeabilized in 0.1% Triton X-100 in PBS (Sigma 93443, 50 μl) for 15 mins at room temperature. Following three further PBS washes, 50 μl blocking buffer (1% BSA, Sigma A4503, in PBS) was added for 45 min for signal-to-noise reduction.
Primary antibody (human GSPT1, Sigma HPA052488) was diluted in blocking buffer (dil.1/300, 35 μl/well) and incubated with the cells overnight at 4° C. After three PBS washes, Alexa-fluor 488 coupled secondary antibodies (Invitrogen, A32731, dil.1/1000), Alexa-fluor 647-Phalloidin (Invitrogen, A22287, dil.1/200) and DAPI (Thermo, #62248, dil.1/1000) were diluted in blocking buffer and incubated with the samples for 2 hours at room temperature. After three final PBS washes, samples were conserved in 100 μl PBS in the dark, until measurement. Image acquisition was performed on the Operetta High-Content Imager (Perkin-Elmer). Fluorescence intensity of Alexa-Fluor 488 (GSPT1), Alexa-Fluor 647 (Actin) and DAPI (Nucleus) were measured. For the determination of GSPT1 DC50 values, a custom algorithm implemented in the PerkinElmer image analysis software Harmony-Acapella® was developed. After user-defined setting of adjustment parameters, the analysis was run identically without human intervention for all image fields. DAPI staining of the nuclei was used to determine the location of cells using standard nuclei detection modules. Segmentation artifacts were removed by threshold-based filters for area, roundness and intensity. The outline of the cells was determined analogously from the sum of the normalized, smoothed DAPI and Actin channel, starting from each nucleus. The Alexa-Fluor 488 (GSPT1) signal intensity in each cell was finally measured, in order to obtain a Mean intensity per cell. GSPT1 degradation (DC50) was calculated after normalization to controls and data import in CDD vault Database, using non-linear regression.

[1] = molecular target: Full length wild-type cereblon CRBN (Homo sapiens (Human), UniProt Q96SW2); assay: fluorescence polarization (FP) assay, cereblon binding
Full length wild-type cereblon CRBN, sequence (Q96SW2 whole entry): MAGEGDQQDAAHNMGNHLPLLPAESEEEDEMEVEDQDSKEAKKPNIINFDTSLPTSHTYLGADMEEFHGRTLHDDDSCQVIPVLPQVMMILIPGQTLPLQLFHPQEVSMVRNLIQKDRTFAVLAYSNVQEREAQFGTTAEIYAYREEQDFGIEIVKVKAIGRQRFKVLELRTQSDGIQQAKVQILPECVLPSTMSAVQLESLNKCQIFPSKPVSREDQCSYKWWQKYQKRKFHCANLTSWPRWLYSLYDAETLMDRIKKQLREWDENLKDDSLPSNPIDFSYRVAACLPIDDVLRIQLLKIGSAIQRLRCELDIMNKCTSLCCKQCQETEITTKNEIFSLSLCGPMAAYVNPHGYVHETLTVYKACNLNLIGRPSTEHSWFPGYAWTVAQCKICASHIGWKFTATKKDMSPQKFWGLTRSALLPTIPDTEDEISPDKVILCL
Text: Compound activity was monitored in a fluorescence polarization (FP) homogeneous assay using 1-[5-({2-[2-(2-{[2-(2,6-dioxopiperidin-3-yl)-1,3-dioxo-2,3-dihydro-1H-isoindol-4-yl]oxy}acetamido)ethoxy]ethyl}carbamoyl)pentyl]-3,3-dimethyl-2-[(1E,3E)-5-[(2E)-1,3,3-trimethyl-5-sulfo-2,3-dihydro-1H-indol-2-ylidene]penta-1,3-dien-1-yl]-3H-indol-1-ium-5-sulfonate as a fluorescent probe. Unless otherwise stated, all reagents were purchased from Sigma Aldrich. […] Full length wild-type cereblon CRBN (80.0 nM, 10 μL) was incubated in assay buffer containing 20 mM HEPES (pH 8.0), […], 0.5 mM TCEP and 0.05% Tween 20 in the presence or absence of compound (300 nL). Inhibitors were stored as 10 mM DMSO stocks in an inert environment (low humidity, dark, low oxygen, room temperature) using the Storage Pod System. […] Following incubation at room temperature for 30 min, the assay was initiated by dispensing the probe to a final concentration of 5 nM (2.5 nL of a 20 μM stock) using the Echo ESXX. […] The FP signal was subsequently normalized to the no-compound control (i.e., DMSO). Analysis and IC50 values were derived using Dotmatics (Dotmatics UK) software.

[2] = 6 hours, read-out: Activity for GSPT1 degradation, Code (DC50)
[3] = GSPT1 degradation, read-out: DC50 value

GSPT1, sequence (P15170 whole entry): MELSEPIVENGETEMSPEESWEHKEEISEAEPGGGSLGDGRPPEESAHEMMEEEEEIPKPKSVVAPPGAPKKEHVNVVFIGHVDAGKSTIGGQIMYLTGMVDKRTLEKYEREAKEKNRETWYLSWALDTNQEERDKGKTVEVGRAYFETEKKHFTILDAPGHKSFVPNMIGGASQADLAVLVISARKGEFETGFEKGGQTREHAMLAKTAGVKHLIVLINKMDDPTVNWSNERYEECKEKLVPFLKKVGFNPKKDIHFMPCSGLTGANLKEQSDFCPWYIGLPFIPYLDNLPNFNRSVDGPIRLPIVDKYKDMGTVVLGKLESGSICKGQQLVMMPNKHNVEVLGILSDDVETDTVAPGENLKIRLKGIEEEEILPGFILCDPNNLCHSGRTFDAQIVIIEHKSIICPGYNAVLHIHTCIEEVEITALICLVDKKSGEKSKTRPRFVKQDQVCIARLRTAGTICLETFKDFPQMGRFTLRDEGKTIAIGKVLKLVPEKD
GSPT1, sequence (Q96SW2 whole entry): as the sequence (Q96SW2 whole entry) above
GSPT1, sequence (Q16531 2-1140 partner): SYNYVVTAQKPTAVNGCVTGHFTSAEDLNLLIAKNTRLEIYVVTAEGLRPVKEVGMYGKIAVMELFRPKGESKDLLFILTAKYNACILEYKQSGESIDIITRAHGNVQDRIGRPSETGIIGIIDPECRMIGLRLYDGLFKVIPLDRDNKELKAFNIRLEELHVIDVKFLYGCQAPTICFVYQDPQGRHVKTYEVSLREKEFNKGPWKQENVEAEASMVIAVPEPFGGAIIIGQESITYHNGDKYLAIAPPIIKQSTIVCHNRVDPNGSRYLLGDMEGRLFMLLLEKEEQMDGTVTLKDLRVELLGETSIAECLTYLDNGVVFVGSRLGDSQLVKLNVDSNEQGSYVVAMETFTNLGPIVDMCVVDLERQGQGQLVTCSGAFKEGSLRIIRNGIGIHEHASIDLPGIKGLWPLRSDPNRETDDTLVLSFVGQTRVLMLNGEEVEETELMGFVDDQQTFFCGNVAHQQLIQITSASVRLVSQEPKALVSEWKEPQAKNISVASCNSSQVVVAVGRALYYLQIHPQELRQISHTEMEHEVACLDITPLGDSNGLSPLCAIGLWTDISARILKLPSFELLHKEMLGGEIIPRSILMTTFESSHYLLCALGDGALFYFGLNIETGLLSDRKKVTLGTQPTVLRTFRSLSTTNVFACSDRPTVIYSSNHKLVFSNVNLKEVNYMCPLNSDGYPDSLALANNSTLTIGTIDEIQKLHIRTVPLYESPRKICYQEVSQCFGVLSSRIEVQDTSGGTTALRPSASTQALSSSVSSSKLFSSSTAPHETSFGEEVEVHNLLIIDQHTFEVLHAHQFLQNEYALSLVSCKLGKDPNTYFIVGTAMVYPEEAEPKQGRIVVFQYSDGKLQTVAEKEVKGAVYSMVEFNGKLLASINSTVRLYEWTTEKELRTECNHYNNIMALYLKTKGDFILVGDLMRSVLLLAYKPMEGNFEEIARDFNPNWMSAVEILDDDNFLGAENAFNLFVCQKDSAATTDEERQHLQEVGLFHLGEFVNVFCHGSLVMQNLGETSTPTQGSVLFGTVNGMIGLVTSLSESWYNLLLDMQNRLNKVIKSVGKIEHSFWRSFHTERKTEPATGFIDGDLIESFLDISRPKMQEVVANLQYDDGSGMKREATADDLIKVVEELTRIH

Row | Compound | DC50 (GSPT1; [2]) [nM] | IC50 ([1]; read-out: IC50 value) [nM] | IC50 ([1]; read-out: rFP IC50) [nM] | DC50 (GSPT1; [3]) [nM]
1 | CC1(c2ccc(NC(=O)OCc3ccc4c(c3)C(=O)N(C3CCC(=O)NC3=O)C4)cc2)COC1 (stereo not drawn) [Compound 62] | 30 to 300 | < 1100 |  | 
2 | CCc1cc(NC(=O)OCc2ccc3c(c2)C(=O)N(C2CCC(=O)NC2=O)C3)ccn1 (stereo not drawn) [Compound 63] | > 300 |  | < 500 | 
3 | O=C1CCC(N2Cc3ccc(COC(=O)Nc4cnc(N5CCCCC5)nc4)cc3C2=O)C(=O)N1 (stereo not drawn) [Compound 64] | 30 to 300 | < 1100 |  | 
4 | O=C1CCC(N2Cc3ccc(COC(=O)Nc4ccc(N5CC6CCC(C5)O6)nc4)cc3C2=O)C(=O)N1 (stereo not drawn) [Compound 65] | > 300 |  | < 500 | 
5 | O=C1CCC(N2Cc3ccc(COC(=O)Nc4ccc5c(c4)CCO5)cc3C2=O)C(=O)N1 (stereo not drawn) [Compound 66] | 30 to 300 |  | < 500 | 
6 | O=C1CCC(N2Cc3ccc(COC(=O)Nc4ccc5c(c4)CCCO5)cc3C2=O)C(=O)N1 (stereo not drawn) [Compound 67] | 30 to 300 | < 1100 |  | 
7 | Cc1c(Cl)cc(NC(=O)OCc2ccc3c(c2)C(=O)N(C2CCC(=O)NC2=O)C3)cc1OC1CCN(C)C1 (stereo not drawn) [Compound 68] | < 30 | < 1100 |  | ≤ 30
8 | CC1CCN(c2ccc(NC(=O)OCc3ccc4c(c3)C(=O)N(C3CCC(=O)NC3=O)C4)cn2)C1 (stereo not drawn) [Compound 69] | < 30 |  | < 500 | ≤ 30
9 | Cc1c(Cl)cc(NC(=O)OCc2ccc3c(c2)C(=O)N(C2CCC(=O)NC2=O)C3)cc1OCC1CCN(C)C1 (stereo not drawn) [Compound 70] | 30 to 300 |  | < 500 | 
10 | O=C1CCC(N2Cc3ccc(COC(=O)Nc4cnc(N5CCCCC5)c(F)c4)cc3C2=O)C(=O)N1 (stereo not drawn) [Compound 72] | 30 to 300 | < 1100 |  | 
11 | O=C1CCC(N2Cc3ccc(COC(=O)Nc4ccc(N5CCCC(F)(F)C5)nc4)cc3C2=O)C(=O)N1 (stereo not drawn) [Compound 73] | 30 to 300 |  | < 500 | 
12 | CC1CCCN1c1ccc(NC(=O)OCc2ccc3c(c2)C(=O)N(C2CCC(=O)NC2=O)C3)cn1 (stereo not drawn) [Compound 74] | < 30 |  | < 500 | ≤ 30
13 | O=C1CCC(N2Cc3ccc(COC(=O)Nc4ccc(N5CCCCC5)nn4)cc3C2=O)C(=O)N1 (stereo not drawn) [Compound 75] | 30 to 300 |  | < 500 | 
14 | O=C1CCC(N2Cc3ccc(COC(=O)Nc4ccc(N5CCOCC5)nc4)cc3C2=O)C(=O)N1 (stereo not drawn) [Compound 76] | 30 to 300 | < 1100 |  | 
15 | CC1CCCCN1c1ccc(NC(=O)OCc2ccc3c(c2)C(=O)N(C2CCC(=O)NC2=O)C3)cn1 (stereo not drawn) [Compound 77] | < 30 | < 1100 |  | ≤ 30

Further lines, results first:

Row | DC50 (GSPT1; [2]) [nM] | IC50 ([1]; read-out: IC50 value) [nM] | IC50 ([1]; read-out: rFP IC50) [nM] | DC50 (GSPT1; [3]) [nM] | Compound
16 | 30 to 300 |  | < 500 |  | O=C1CCC(N2Cc3ccc(COC(=O)Nc4ccc(N5CCC(F)(F)CC5)nc4)cc3C2=O)C(=O)N1 (stereo not drawn) [Compound 78]
17 | 30 to 300 |  | < 500 |  | O=C1CCC(N2Cc3ccc(COC(=O)Nc4ccc(C5CC5)nc4)cc3C2=O)C(=O)N1 (stereo not drawn) [Compound 80]
18 | 30 to 300 |  | < 500 |  | O=C1CCC(N2Cc3ccc(COC(=O)Nc4ccc(C5COC5)cc4)cc3C2=O)C(=O)N1 (stereo not drawn) [Compound 81]
19 | > 300 |  | < 500 |  | CN1CCN(c2ccc(NC(=O)OCc3ccc4c(c3)C(=O)N(C3CCC(=O)NC3=O)C4)cn2)CC1 (stereo not drawn) [Compound 82]
20 | < 30 | < 1100 |  | ≤ 30 | CC1(C)COc2cc(NC(=O)OCc3ccc4c(c3)C(=O)N(C3CCC(=O)NC3=O)C4)ccc21 (stereo not drawn) [Compound 83]
21 | < 30 |  | < 500 | ≤ 30 | O=C1CCC(N2Cc3ccc(COC(=O)Nc4ccc(-c5ccccc5F)nc4)cc3C2=O)C(=O)N1 (stereo not drawn) [Compound 84]
22 | < 30 |  | > 1700 | ≤ 30 | O=C1CCC(N2Cc3ccc(COC(=O)Nc4cnc(-c5ccccc5)c(F)c4)cc3C2=O)C(=O)N1 (stereo not drawn) [Compound 85]
23 | < 30 | < 1100 |  | ≤ 30 | Cc1ccccc1-c1ccc(NC(=O)OCc2ccc3c(c2)C(=O)N(C2CCC(=O)NC2=O)C3)cn1 (stereo not drawn) [Compound 86]
